Laboratory results reported in US20220008455A1, “Compound and Composition for Use in the Preventive and/or Curative Treatment of Diseases of the Central Nervous System Characterised by a Decline in Neuronal Plasticity, in Particular Characterised by a Decline in Synaptic Plasticity” (SYNAPHARM INDUSTRIAL SYNTHESIS, priority 2017, published 2022).

Test system: synaptic responses between Schaffer collaterals and dendrites in the CA1 region
Test: Long-term potentiation in hippocampal slices of magnesium-deficient rats (restoration of synaptic plasticity)
Assay type: ex vivo, rat
Protocol: [Comparative experiments were conducted on rats to measure the efficiency of synaptic transmission and synaptic plasticity, in particular in order to measure the recovery of synaptic plasticity.
Three groups of rats were made up as follows:
Group 1: control rats on a normal diet;
Group 2: magnesium-deficient rats on a low-magnesium diet;
Group 3: magnesium-deficient rats supplemented with a composition according to the invention containing magnesium N-acetyl taurinate dihydrate containing two intrinsic water molecules (ATAMg dihydrate) at a dose of […] magnesium N-acetyl taurinate dihydrate containing two intrinsic water molecules (in the water). Supplementation was started 40 days after the beginning of the low-magnesium diet and was carried on for 24 days.
The hippocampi of the rats from each group were dissected to measure synaptic plasticity. In particular, synaptic responses were measured between Schaffer collaterals and dendrites in the CA1 region. A baseline was recorded for 30 minutes corresponding to a synaptic response of 40% of the peak response. Then the long-term plasticity process was induced by applying four 100 Hz trains at 5-minute intervals. The increased response was measured over four hours. For every experiment, a control pathway without any high-frequency stimulation was also measured.

## CC(=O)NCCS(=O)(=O)[O-].CC(=O)NCCS(=O)(=O)[O-].O.O.[Mg+2] [magnesium N-acetyl taurinate dihydrate]
Group 3: magnesium-deficient rats supplemented in the water at 50 mg/kg/hour (50 mg/kg/day) for 24 days, four 100 Hz trains, response measured over four hours, FIG. 3
  long-term potentiation: over 300%
Group 3: magnesium-deficient rats supplemented in the water for 24 days, control pathway without high-frequency stimulation, FIG. 3
  control pathway / baseline stability: stabilisation of the baseline
Comparison of Group 3 (supplemented) with Group 2 (magnesium-deficient rats)
  recovery/restoration of synaptic plasticity: induces the recovery/restoration of synaptic plasticity
